Laboratory results from patent US10434101B2, “Heterocyclic compounds and uses thereof” (Celgene CAR LLC, priority 2010, dated 2019).
Where two headings read alike, the source gives them in different places.

What was measured:
[1] = tested on: A431 cells (WT EGFR); assay: Cell proliferation (CellTiter Glo, 72 hr) in A431 cells; type: cell-based; conditions: Homo sapiens
Protocol: (§1) A431 human epidermoid carcinoma, H1975 human NSCLC and HCC827 human NSCLC adenocarcinoma cells were obtained from the American Type Culture Center (Manassas, Va.). A431 cells were grown in DMEM (Invitrogen, Carlsbad, Calif.) supplemented with 10% FBS (HyClone, South Logan, Utah) and 1% Penicillin-Streptomycin (P/S, Lonza, Walkersville, Md.).
(§2) Cells were plated in Growth Media supplemented with 5% FBS and 1% P/S at a density of 3,000 cells per well in 96 well tissue culture plates (Corning). […] Growth inhibition (GI50) values were determined by Graph Pad Prism.

[2] = tested on: H1975 cells (EGFR L858R/T790M); assay: Cell proliferation (CellTiter Glo, 72 hr) in H1975 cells; type: cell-based, human; conditions: Homo sapiens, NCI-H1975; H1975 cells, 72 hr; read-out: H1975 GI50
Protocol: as §1, §2

[3] = tested on: HCC827 cells (EGFR delE746-A750); assay: Cell proliferation (CellTiter Glo, 72 hr) in HCC827 cells; type: cell-based, human; conditions: Homo sapiens; HCC827 cells, 72 hr; read-out: HCC827 GI50
Protocol: as §1, §2

[4] = A-431, A431 cells, 72 hr, read-out: WT EGFR GI50

| SMILES | GI50 [1, 4] [nM] | GI50 [2] [nM] | GI50 [3] [nM] | GI50 ([1]; A-431, read-out: Comparative GI50 Values, A431) [nM] |
| --- | --- | --- | --- | --- |
| C=CC(=O)Nc1cccc(Oc2nc(Nc3ccc(N4CCCN(C(=O)OC(C)(C)C)CC4)cc3OC)ncc2C(F)(F)F)c1 [Compound I-39, tert-butyl 4-(4-(4-(3-acrylamidophenoxy)-5-(trifluoromethyl)pyrimidin-2-ylamino)-3-methoxyphenyl)-1,4-diazepane-1-carboxylate] | > 1000 | > 1000 | > 1000 | – |
| C=CC(=O)Nc1cccc(Nc2nc(Nc3ccc(N4CCCOCC4)cc3OC)ncc2C(F)(F)F)c1 [Compound I-38, N-(3-(2-(2-methoxy-4-(1,4-oxazepan-4-yl)phenylamino)-5-(trifluoromethyl)pyrimidin-4-ylamino)phenyl)acrylamide] | > 1000 | > 1000 | 500 to 1000 | – |
| C=CC(=O)Nc1cccc(Oc2nc(Nc3ccc(N4CCN(C(=O)OC(C)(C)C)CC4)cc3OCC)ncc2Cl)c1 [Compound I-18, tert-butyl 4-(4-(4-(3-acrylamidophenoxy)-5-chloropyrimidin-2-ylamino)-3-ethoxyphenyl)piperazine-1-carboxylate] | > 1000 | 500 to 1000 | 100 to 500 | – |
| C=CC(=O)Nc1cccc(Oc2nc(Nc3ccc(N4CCOCC4)cc3OC(F)F)ncc2C(F)(F)F)c1 [Compound I-13, N-(3-(2-(2-(difluoromethoxy)-4-morpholinophenylamino)-5-(trifluoromethyl)pyrimidin-4-yloxy)phenyl)acrylamide] | > 1000 | 100 to 500 | 10 to 100 | – |
| C=CC(=O)Nc1cccc(Nc2nc(Nc3ccc(N4CCN(C(=O)NC)CC4)cc3OC)ncc2C(F)(F)F)c1 [Compound I-28, 4-(4-(4-(3-acrylamidophenylamino)-5-(trifluoromethyl)pyrimidin-2-ylamino)-3-methoxyphenyl)-N-methylpiperazine-1-carboxamide] | > 1000 | 500 to 1000 | 10 to 100 | – |
| C=CC(=O)Nc1cccc(Oc2nc(Nc3ccc(N4CCN(S(N)(=O)=O)CC4)cc3OC)ncc2C(F)(F)F)c1 [Compound I-27, N-(3-(2-(2-methoxy-4-(4-sulfamoylpiperazin-1-yl)phenylamino)-5-(trifluoromethyl)pyrimidin-4-yloxy)phenyl)acrylamide] | > 1000 | 100 to 500 | 10 to 100 | – |
| C=CC(=O)Nc1cccc(Oc2nc(Nc3ccc(N4CCN(C(=O)CC(C)(C)C)CC4)cc3OC)ncc2Cl)c1 [Compound I-23, N-(3-(5-chloro-2-(4-(4-(3,3-dimethylbutanoyl)piperazin-1-yl)-2-methoxyphenylamino)pyrimidin-4-yloxy)phenyl)acrylamide] | > 1000 | 500 to 1000 | 100 to 500 | – |
| C=CC(=O)Nc1cccc(Oc2nc(Nc3ccc(N4CCCOCC4)cc3OC)ncc2Cl)c1 [Compound I-37, N-(3-(5-chloro-2-(2-methoxy-4-(1,4-oxazepan-4-yl)phenylamino)pyrimidin-4-yloxy)phenyl)acrylamide] | > 1000 | 500 to 1000 | 100 to 500 | – |
| C=CC(=O)Nc1cccc(Nc2nc(Nc3ccc(N4CCN(C(=O)CC)CC4)cc3OC)ncc2C(F)(F)F)c1 [Compound I-35, N-(3-(2-(2-methoxy-4-(4-propionylpiperazin-1-yl)phenylamino)-5-(trifluoromethyl)pyrimidin-4-ylamino)phenyl)acrylamide] | > 1000 | 10 to 100 | 10 to 100 | – |
| C=CC(=O)Nc1cccc(Oc2nc(Nc3ccc(N4CCN(C(C)=O)CC4)cc3OC)ncc2Cl)c1 [Compound I-9, N-(3-(2-(4-(4-acetylpiperazin-1-yl)-2-methoxyphenylamino)-5-chloropyrimidin-4-yloxy)phenyl)acrylamide] | > 1000 | 100 to 500 | 10 to 100 | – |
| CCOc1cc2ncc(C#N)c(Nc3ccc(OCc4ccccn4)c(Cl)c3)c2cc1NC(=O)/C=C/CN(C)C [HKI-272, reference compound] | – | – | – | 4 |
